Legend:
5'-nucleotidase = settings: Crotalus atrox, pH 7.3
[1] = in vivo; cited from earlier work

Compound	Hydrolysis (%) (5'-nucleotidase)	half-life [1]
Nc1ncnc2c1ncn2[C@@H]1O[C@H](COP(=O)(O)O)[C@@H](O)[C@H]1O [Adenosine MP, adenosine-5'-monophosphate]	86.0%	
isoprinosine		less than four hours

From EP0821692B1, “IMMUNOPOTENTIATING INOSINE MONOPHOSPHATE 5'-NUCLEOTIDASE RESISTANT DERIVATIVES AND USES THEREOF” (UNIVERSITY OF SOUTH FLORIDA, priority 1995, dated 1996)
